According to patent US11566007B2, “Ras inhibitors” (Revolution Medicines, Inc., priority 2019, dated 2023):
Like-named read-outs stand apart in the source and are kept apart here.

What was measured:
[1] = ester bond, EDCI/HOBt/DIPEA, DCM, 25.0 °C
[2] = ester bond, 18-membered ring, EDCI/HOBt/DIPEA, DCM
[3] = tested on: SW1573; conditions: Canon et al. 2019; cited from earlier work
[4] = tested on: NCI-H358 KRASG12C xenograft; experiment: In vivo NSCLC K-Ras G12C xenograft model; parameters: species or system BALB/c nude mice
Method: Cobimetinib was administered by daily oral gavage at 2.5 mg/kg. The combination of Compound B and cobimetinib at their respective single-agent dose and regimen was also tested.

[5] = tested on: NCI-H358 cells; experiment: 72-hour proliferation assay using CellTiter-Glo reagent; format: cell-based, human; conditions: read-out: EC50 from a 72-hour proliferation assay
[6] = tested on: NCI-H358 cells; experiment: Long-term cell proliferation assay (Incucyte confluence); format: cell-based, human; conditions: trametinib 10 nM
Method: The plate was placed in the Incucyte S3 live cell analysis system (37° C., 5% CO2) and confluence was measured by recording images at 6-hour intervals for a maximum of 40 days, or until wells reached maximal confluence. Media and drug were replaced at 3-4 day intervals. Data are plotted as % confluence over the time course of the experiment for each single agent and respective combination (FIG. 5).

[7] = single agent: Compound B 50 mg/kg twice weekly intravenous, cobimetinib […] daily oral

Compound: CO[C@@H](C)c1ncccc1-c1c2c3cc(ccc3n1CC(F)(F)F)-c1cccc(n1)C[C@H](NC(=O)OC(C)(C)C)C(=O)N1CCCC(N1)C(=O)OCC(C)(C)C2 (some centres unmarked)
- ring closure, yield of all isomers ([1]; from CO[C@@H](C)c1ncccc1-c1c(CC(C)(C)CO)c2cc(-c3cccc(C[C@H](NC(=O)OC(C)(C)C)C(=O)N4CCCC(C(=O)O)N4)n3)ccc2n1CC(F)(F)F, 6.27 mM, 3.0 h): 89%
- ring closure, isolated yield ([2]; from CO[C@@H](C)c1ncccc1-c1c(CC(C)(C)CO)c2cc(-c3cccc(C[C@H](NC(=O)OC(C)(C)C)C(=O)N4CCCC(C(=O)O)N4)n3)ccc2n1CC(F)(F)F, 6.27 mM): 89%

Compound: CO[C@@H](C)c1ncccc1-c1c2c3cc(ccc3n1CC(F)(F)F)-c1nc(ns1)C[C@H](NC(=O)OC(C)(C)C)C(=O)N1CCC[C@H](N1)C(=O)OCC(C)(C)C2
- ring closure, yield of all isomers ([1]; from CO[C@@H](C)c1ncccc1-c1c(CC(C)(C)CO)c2cc(-c3nc(C[C@H](NC(=O)OC(C)(C)C)C(=O)N4CCC[C@@H](C(=O)O)N4)ns3)ccc2n1CC(F)(F)F, 11.1 mM, 16.0 h): 43.5%
- ring closure, isolated yield ([2]; from CO[C@@H](C)c1ncccc1-c1c(CC(C)(C)CO)c2cc(-c3nc(C[C@H](NC(=O)OC(C)(C)C)C(=O)N4CCC[C@@H](C(=O)O)N4)ns3)ccc2n1CC(F)(F)F, 11.1 mM): 43.5%

Compound: C=CC(=O)N1CCN(c2nc(=O)n(-c3c(C)ccnc3C(C)C)c3nc(-c4c(O)cccc4F)c(F)cc23)[C@@H](C)C1 [AMG510]
- sensitivity of cell line [3]: insensitive

Compound: Cc1nc(N2CCC3(CC2)CO[C@@H](C)[C@H]3N)c(CO)nc1-c1cccc(Cl)c1Cl [RMC-4550]
- mice with tumor regression at end of study (out of 10), single agent ([4]; single agent: Compound C 60 mg/kg once weekly intravenous, SHP2 inhibitor (RMC-4550) 30 mg/kg daily oral): 5

Compound: O=C(c1ccc(F)c(F)c1Nc1ccc(I)cc1F)N1CC(O)([C@@H]2CCCCN2)C1 [cobimetinib]
- effect on tumor growth, single agent [4, 7]: tumor growth inhibition
- tumor regressions recorded, single agent group [4, 7]: no tumor regressions

Compound: CC(=O)Nc1cccc(-n2c(=O)n(C3CC3)c(=O)c3c(Nc4ccc(I)cc4F)n(C)c(=O)c(C)c32)c1 [trametinib]
- EC50 [5]: 10 nM
- time to maximal confluence after the addition of drug ([6]; single agent at EC50 concentration: Compound D 17 nM): ~10 days
- cell growth (% confluence) over time, single agent ([6]; submaximal (EC50) concentration: Compound D 17 nM): a short period of growth inhibition, followed by proliferation
